# Values quoted from earlier work, collected in publication PMC9854340 (RSC Advances, 2023).
# Tests used:
# [1] = system: HL-60 human myeloblastic leukemia cells; settings: HL-60 cells, MTT; data taken from a previous report
# [2] = folding square to folded form; CH3CN-d3; van't Hoff plot; previous report
substance,measurement,setting,value
Ascidiacyclamide [Peptide 1a],ED50,[1],32.9 ± 0.9 µg/mL
same,ΔH°,[2],-2.28 kcal/mol
same,ΔS°,[2],-0.009417 kcal/mol
